Assay results reported in patent publication US9770026B2, “Substituted pyrimidine compound and uses thereof” (Shenyang Sinochem Agrochemicals R&D Co., Ltd., priority 2012, dated 2017).

What was measured:
rice blast = experiment: microbe, parasite or virus in culture; assay type: cell-based; conditions: Pyricularia oryzae, read-out: inhibition rate against rice blast, 25 ppm, in vitro
Diamond back moth = experiment: insecticidal activity against diamond back moth, airbrush spray; assay type: in vivo
Procedure, shortened: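 Airbrush leaf-disc spray test: both faces of 2 cm cabbage discs received 0.5 ml of test solution at 0.7 kg/cm^2. Solutions were made in acetone:methanol (1:1) and brought to concentration with 0.1% Tween 80 in water. Ten second-instar larvae per disc, triplicates, were held at 25° C and 60˜70% R.H., with mortality recorded at 72 hrs.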

armyworm = experiment: bioactivity test against armyworm, airbrush spray; assay type: in vivo; conditions: 72 h, 600 mg/L; read-out: Insecticidal activity against armyworm (%)
[1] = tested on: Green peach aphids (Myzus Persicae Sulzer); experiment: bioactivity test against green peach aphid, airbrush foliar spray; assay type: in vivo
Procedure, shortened: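 Death rate was scored at 48 hrs, held at 25±1 C and 60±5% RH, following airbrush foliar spray (0.5 mL, 10 psi) onto cabbage leaf discs bearing about 15-30 aphids. Test solutions: compound dissolved in 1:1 acetone:methanol, brought to concentration with 0.1% tween 80 water.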

wheat powdery mildew = experiment: protectant activity in vivo against wheat powdery mildew
cucumber downy mildew = experiment: protectant activity in vivo against cucumber downy mildew
carmine spider mite = experiment: bioactivity test against carmine spider mite, airbrush spray; assay type: in vivo; conditions: for control against carmine spider mite: mortality after 72 hrs
Procedure, shortened: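 Broadbean seedlings infested with adult mites were sprayed with compound (acetone/methanol stock diluted in 0.1% Tween 80 water) by airbrush at 0.7 kg/cm^2, 0.5 ml. Three replicates were run. Mortality was scored after 72 hrs.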

corn rust = experiment: protectant activity in vivo against corn rust

FC(F)(F)c1ccc(Oc2ccc(CCNc3ncnc4ccccc34)cc2)cc1 [CK11, reference compound]
100%: pest or weed control at 600 µg/mL ([1]; Myzus persicae, foliar, 48 h, 600 mg/L, contrastive test, read-out: Insecticidal activity against peach aphid (%)) | pest or weed control at 400 µg/mL (wheat powdery mildew; Triticum aestivum, 168 h, read-out: control effect against wheat powdery mildew (%), 400 mg/L, protectant activity)
25%: pest or weed control at 5 µg/mL ([1]; Myzus persicae, foliar, 48 h, 5 mg/L, contrastive test, read-out: Insecticidal activity against peach aphid (%))
86%: pest or weed control at 600 µg/mL (Diamond back moth; 72 h, 600 mg/L)
0%: inhibition at 25 ppm (rice blast) | pest or weed control at 2.5 µg/mL ([1]; Myzus persicae, foliar, 48 h, 2.5 mg/L, contrastive test, read-out: Insecticidal activity against peach aphid (%)) | pest or weed control at 6.25 µg/mL (wheat powdery mildew; Triticum aestivum, 168 h, read-out: control effect against wheat powdery mildew (%), 6.25 mg/L, protectant activity) | pest or weed control at 25 µg/mL (cucumber downy mildew; Cucumis sativus, 168 h, read-out: control effect against cucumber downy mildew (%), 25 mg/L, protectant activity) | pest or weed control at 50 µg/mL (cucumber downy mildew; Cucumis sativus, 168 h, read-out: control effect against cucumber downy mildew (%), 50 mg/L, protectant activity)
85%: pest or weed control at 10 µg/mL ([1]; Myzus persicae, foliar, 48 h, 10 mg/L, contrastive test, read-out: Insecticidal activity against peach aphid (%)) | pest or weed control at 400 µg/mL (cucumber downy mildew; Cucumis sativus, 168 h, read-out: control effect against cucumber downy mildew (%), 400 mg/L, protectant activity)
98%: pest or weed control at 100 µg/mL ([1]; Myzus persicae, foliar, 48 h, 100 mg/L, contrastive test, read-out: Insecticidal activity against peach aphid (%))
55%: pest or weed control at 100 µg/mL (Diamond back moth; 72 h, 100 mg/L)
29%: pest or weed control at 600 µg/mL (armyworm)
60%: pest or weed control at 100 µg/mL (wheat powdery mildew; Triticum aestivum, 168 h, read-out: control effect against wheat powdery mildew (%), 100 mg/L, protectant activity)
5%: pest or weed control at 10 µg/mL (Diamond back moth; 72 h, 10 mg/L)
30%: pest or weed control at 100 µg/mL (cucumber downy mildew; Cucumis sativus, 168 h, read-out: control effect against cucumber downy mildew (%), 100 mg/L, protectant activity)
40%: pest or weed control at 25 µg/mL (wheat powdery mildew; Triticum aestivum, 168 h, read-out: control effect against wheat powdery mildew (%), 25 mg/L, protectant activity)

CCc1ncnc(NCCc2ccc(Oc3ccc(C(F)(F)F)cn3)cc2)c1Cl [Compound I-254]
20%: pest or weed control at 1.6 µg/mL (wheat powdery mildew; Triticum aestivum, 168 h, read-out: control effect against wheat powdery mildew (%), 1.6 mg/L, protectant activity)
79%: Insecticidal activity against carmine spider mite (% ) (carmine spider mite; 2.5 mg/L)
93%: Insecticidal activity against carmine spider mite (% ) (carmine spider mite; 5 mg/L)
80 to 99%: inhibition at 25 ppm (rice blast)
97%: Insecticidal activity against carmine spider mite (% ) (carmine spider mite; 10 mg/L, contrastive test)
40%: pest or weed control at 0.4 µg/mL (corn rust; Zea mays, 168 h, read-out: control effect against corn rust (%), 0.4 mg/L, protectant activity)
95%: pest or weed control at 1.6 µg/mL (corn rust; Zea mays, 168 h, read-out: control effect against corn rust (%), 1.6 mg/L, protectant activity)
100%: control (test results against diamond back moth) (Diamond back moth; 600 ppm, mortality after 72 hrs) | pest or weed control at 100 ppm (Diamond back moth; 72 h, 100 ppm, mortality after 72 hrs, read-out: control (test results against diamond back moth)) | Insecticidal activity against peach aphid (%) ([1]; 1.25 mg/L, contrastive test) | Insecticidal activity against peach aphid (%) ([1]; 2.5 mg/L, contrastive test) | Insecticidal activity against peach aphid (%) ([1]; 5 mg/L, contrastive test) | Insecticidal activity against peach aphid (%) ([1]; 10 mg/L, contrastive test) | Insecticidal activity against peach aphid (%) ([1]; 100 mg/L, contrastive test) | Insecticidal activity against peach aphid (%) ([1]; 600 mg/L, contrastive test) | control (test results against green peach aphid) ([1]; 5 ppm, death rate after 48 hrs) | control (test results against green peach aphid) ([1]; 10 ppm, death rate after 48 hrs) | control (test results against green peach aphid) ([1]; 100 ppm, death rate after 48 hrs) | control (test results against green peach aphid) ([1]; 600 ppm, death rate after 48 hrs) | pest or weed control at 2.5 ppm ([1]; Myzus persicae, foliar, 48 h, 2.5 ppm, death rate after 48 hrs) | Insecticidal activity against carmine spider mite (% ) (carmine spider mite; 100 mg/L, contrastive test) | Insecticidal activity against carmine spider mite (% ) (carmine spider mite; 600 mg/L, contrastive test) | control against carmine spider mite (carmine spider mite; 10 ppm) | control against carmine spider mite (carmine spider mite; 100 ppm) | control against carmine spider mite (carmine spider mite; 600 ppm) | protectant activity against corn rust in vivo (corn rust; 100 ppm) | protectant activity against corn rust in vivo (corn rust; 400 ppm) | pest or weed control at 6.25 µg/mL (corn rust; Zea mays, 168 h, read-out: control effect against corn rust (%), 6.25 mg/L, protectant activity) | pest or weed control at 25 µg/mL (corn rust; Zea mays, 168 h, read-out: control effect against corn rust (%), 25 mg/L, protectant activity) | pest or weed control at 100 µg/mL (corn rust; Zea mays, 168 h, read-out: control effect against corn rust (%), 100 mg/L, protectant activity) | pest or weed control at 400 µg/mL (corn rust; Zea mays, 168 h, read-out: control effect against corn rust (%), 400 mg/L, protectant activity) | pest or weed control at 6.25 ppm (corn rust; Zea mays, 168 h, read-out: protectant activity against corn rust in vivo, 6.25 ppm) | pest or weed control at 25 ppm (corn rust; Zea mays, 168 h, read-out: protectant activity against corn rust in vivo, 25 ppm) | control effect against wheat powdery mildew (%) (wheat powdery mildew; 6.25 mg/L, protectant activity) | control effect against wheat powdery mildew (%) (wheat powdery mildew; 25 mg/L, protectant activity) | control effect against wheat powdery mildew (%) (wheat powdery mildew; 100 mg/L, protectant activity) | control effect against wheat powdery mildew (%) (wheat powdery mildew; 400 mg/L, protectant activity) | protectant activity against wheat powdery mildew in vivo (wheat powdery mildew; 100 ppm) | protectant activity against wheat powdery mildew in vivo (wheat powdery mildew; 400 ppm) | protectant activity against cucumber downy mildew in vivo (cucumber downy mildew; 100 ppm) | protectant activity against cucumber downy mildew in vivo (cucumber downy mildew; 400 ppm) | pest or weed control at 50 ppm (cucumber downy mildew; Cucumis sativus, 168 h, read-out: protectant activity against cucumber downy mildew in vivo, 50 ppm)
